Results: US4942256A, “Novel intermediates in the manufacture of novel thromboxane A2 antagonists” (National Research Development Corporation, priority 1988, dated 1990)

Experiments:
[1] = tested on: U-46619-induced platelet aggregation; test: Inhibition of U-46619-induced platelet aggregation (rat), in vitro in rat platelet rich plasma; format: cell-based; details: for IC50: 1 min preincubation at 37° C
Procedure: a. Inhibition of U-46619-induced platelet aggregation (rat)
Platelet rich plasma (PRP) was prepared from heparanized whole blood (5 units/ml) drawn from the abdominal aorta of ether anesthetized rats. PRP was prepared by centrifugation (Sorvall RC2B, DuPont, Wilmington, Del.) of the whole blood at 150×g for 10 min. Platelet poor plasma (PPP) was prepared by centrifugation at 1200×g for 20 min. Aliquots of PRP and PPP were used to standardize the aggregometer (Payton, Buffalo, N.Y., model 300B) with the recorder (Riken Denshi 2 channel recorder, Payton, model SP H5P) for measurement of […] light transmittance, respectively.
Platelet aggregation was measured as an increase in light transmittance. PRP (390 μl aliquot+5 μl compound vehicle) was preincubated for 1 min. at 37° C., with stirring at 900 rpm in the aggregometer. The vehicle control response was obtained by adding U-46619 (Cayman Chemical, Ann Arbor, Mich., 1-2 units/cuvette/10 μl ) to the aliquot of PRP. Aggregation was monitored until maximum aggregation was achieved (approximately 3 min. following the addition of U-46619). Amount of aggregation was measured by grids on the strip chart.
Compounds were dissolved in either ethanol (ETOH) or Na2 CO3 (0.1M) and preincubated at the desired concentration in PRP for 1 min. at 37° C. with stirring. At the end of the preincubation, U-46619 was added and aggregation measured. Inhibition of aggregation by compound was calculated as percent inhibition of the control aggregation response to U-46619. Dose response curves were generated and IC50 's calculated by linear regression.

[2] = tested on: collagen induced platelet aggregation; test: Inhibition of collagen induced platelet aggregation in dog PRP; format: cell-based; details: Canis lupus familiaris
Procedure: c. Inhibition of collagen induced platelet aggregation in dogs by SC-44161 and SC-46984
Blood was collected into citrated vacutainers from the jugular veins of conscious dogs and centrifuged at 200×g for 7 min. PRP was separated and an aliquot (450 μl ) incubated 1 min. in the aggregometer (as described above). Collagen (50 μl, Helena Reagent, bovine tendon) was added and aggregation monitored for 5 min. Percent inhibition and IC50 's were determined as previously described.

[3] = tested on: U-46619 induced platelet aggregation; test: Ex vivo inhibition of U-46619 induced platelet aggregation, intravenous (rat); format: in vivo; details: for ED50: Platelet, iv, 0.5 min, i.v. bolus, blood sampled 30 sec. later
Procedure: (§1) II. Ex vivo--(rat) Inhibition of U-46619 induced platelet aggregation
Rats were anesthetized with ether and the jugular vein exposed. Compound dissolved in 0.1M Na Carbonate was injected as a bolus into the jugular vein. Blood (5 ml, heparanized) was sampled 30 sec. later from the abdominal aorta. PRP was prepared by quick centrifugation (Eppendorf, model 5415 at 12,000 rpm for 5 sec.) PPP was prepared by centrifugation for 2 min. PRP was diluted 1:1 with PPP from, similarly treated animals. Aggregation was monitored for 5 min. and inhibition was determined as previously described.

[4] = tested on: U-46619 induced platelet aggregation; test: Ex vivo inhibition of U-46619 induced platelet aggregation, intragastric (rat); format: in vivo; details: for ED50: read-out: I.G. ED50, ex vivo inhibition of U-46619 induced aggregation; for I.V./I.G. ratio: from the I.V. and the I.G. studies, rat ED50
Procedure: as §1
Compounds dissolved in Na Carbonate were administered to conscious rats with an I.G. tube. Fifteen minutes post administration (time previously determined to show maximum effect), rats were anesthetized with ether and blood was sampled from the abdominal aorta. PRP was prepared as described in II a.

human washed platelets = test: Analysis of partial agonism with SC-46985 (human washed platelets); format: cell-based
Procedure: b. Analysis of partial agonism with SC-46985 (human washed platelets)
(§2) Sixty ml of blood were drawn into 1/10 volume of CCD (100 mM Na Citrate and 136 mM glucose, pH 6.5 with HCl) and PRP prepared as described above. PRP was placed on ice for 15 min. One half of the volume of CCD was added and recentrifuged. The platelet pellet was gently resuspended in 1/2 the original volume of PRP in a 0° C. modified Tangen-Hepes-BSA buffer (145 mM NaCl, 5 mM KCl, 0.05 mM CaCl2, 0.1 mM MgCl2, 11 mM glucose, 15 mM Hepes, 1 mg/ml bovine serum albumin, pH adjusted to 7.4 with NaOH). The resuspended platelets were incubated undisturbed at 37° C. for 30 min. After incubation a platelet count was determined and adjusted to 3×10^8 cells/ml with the Tangen-Hepes-BSA buffer.
(§3) 425 μl of the washed human platelet suspension was incubated in the aggregometer in the presence of 16 mM CaCl2 (50 μl ) and SC-46985 for 5 and 10 min. […] (In a study similar to (a) above, aliquots of human washed platelets were incubated with various concentrations of SC-46985 and U-46619 to determine dose-related inhibition of aggregation).

[5] = tested on: human washed platelets stimulated with U-46619; test: Inhibition of U-46619 stimulated aggregation of human washed platelets by SC-46985; format: cell-based; details: Platelet
Procedure: as §2, §3

[6] = Rattus norvegicus, Platelet, vehicle Na2CO3 (0.1M), (a) values are estimates based on all-or-none responses
[7] = Platelet, po, 0.25 h, rat, intragastric, 15 min post administration
[8] = Rattus norvegicus, Platelet, vehicle ETOH

| Structure (SMILES) | IC50 [1, 6] | IC50 [2] | ED50 [3] | ED50 [4, 7] | I.V./I.G. ratio [4] | IC50 [1, 8] | times more potent than SC-44161 (in vitro) ([1]; rat PRP, U-46619) | other results |
| --- | --- | --- | --- | --- | --- | --- | --- | --- |
| CC(=NNC(=S)Nc1ccccc1)C1C2CCC(C2)C1CC=CCCCC(=O)O (racemic) [SC-44161, (±)7-[3α[[(Phenylamino)thioxomethyl]hydrazono]ethyl]1α,4α-bicyclo[2.2.1]hept-2β-yl]-5Z-heptenoic acid] | 70 nM | 11400 nM | 0.031 mg/kg | 1.21 mg/kg | 39 |  |  | more potent when in aqueous solution than when dissolved in ethanol ([1]; rat PRP, Na carbonate vs ETOH): 5-10 fold |
| CC(=NNC(=S)Nc1ccccc1)[C@@H]1[C@H]2CC[C@H](C2)[C@H]1C/C=C\CCCC(=O)O [SC-46984, 7-[3α-[1-[[(Phenylamino)thioxomethyl]hydrazono]ethyl]-1R, 1α,4α-bicyclo[2.2.1]hept-2β-yl]5Z-heptenoic acid] | 0.7 nM | 2090 nM | 0.0087 mg/kg | 0.44 mg/kg | 51 | 50 nM | approximately 100 times | more potent in aqueous solution than in ethanol ([1]; rat PRP, Na carbonate vs ETOH): 10-50 times; times more potent than SC-44161 (I.V.) ([3]; i.v., ex vivo): approximately 3.5 times; times more potent than SC-44161 (I.G.) ([4]; rat, intragastric, ex vivo): approximately 2.8 times |
| CC(=NNC(=S)Nc1ccccc1)[C@H]1[C@@H]2CC[C@@H](C2)[C@@H]1C/C=C\CCCC(=O)O [SC-46985] | ~2500 nM |  | 0.045 mg/kg |  |  | 970 nM |  | partial agonist activity (human washed platelets; 5 and 10 min. incubation): lack of partial agonist activity; evidence of shape change or aggregation (partial agonism) (human washed platelets; after 5 and 10 min. incubation): no evidence of shape change or aggregation; times less potent than SC-44161 (I.V.) ([3]; i.v., ex vivo): approximately 1.5 times; IC50 [5]: 5600 nM |
| CC(=NNC(=S)Nc1ccccc1)C1C2CCC(C2)C1CC=CCCCC(=O)O (stereo not shown) [SC-46986] |  |  |  |  |  |  |  | IC50 ([1]; vehicle ETOH): 690 nM |
| CC(=NNC(=S)Nc1ccccc1)[C@@H]1[C@H]2CC[C@H](C2)[C@H]1C/C=C/CCCC(=O)O [SC-47721, 7-[3α-[1-[[(Phenylamino)thioxomethyl]hydrazono]ethyl]-1R, 1α,4α-bicyclo[2.2.1]hept-2β-yl]-5E-heptenoic acid] | ~7.5 nM |  |  |  |  |  | 10-50 times | potency compared with SC-46984 (in vitro) ([1]; rat PRP, U-46619): less potent than SC 46984; inhibition at 1 mg/kg ([4]; Platelet, po, 0.25 h, rat, intragastric, 1 mg/kg, 15 min post administration): 37.5% |
